Among the data in patent publication US12371454B2, “Cyclic peptide compound having Kras inhibitory action” (priority 2019, dated 2025) are IC50 values, retold here.

Molecules are shown by their SMILES. Starred links: 1 amine or outer side, 2 acyl side, 3 side chain; linkers in the order of their positions; H or OH if unused. Positions of bridges follow the written chain, without caps; N, C: chain ends. Non-standard residues stand in square brackets, D forms with d. Residues, ends and D or L forms follow the SMILES beside them. *: point of attachment. hPhe(3,5-F2-4-CF3) = N[C@@H](CCc1cc(F)c(C(F)(F)F)c(F)c1)C(=O)O; hPhe(3-Cl-4-CF3) = N[C@@H](CCc1ccc(C(F)(F)F)c(Cl)c1)C(=O)O; NMePhe(4-CF3) = CN[C@@H](Cc1ccc(C(F)(F)F)cc1)C(=O)O; 3Oxa8azabicyclo(3.2.1)octane = C1CC2COCC1N2*; NMedβ3hAla = C[C@H](CC(=O)[*:2])N(C)[*:1]; NMeGly(cBu) = CN[C@H](C(=O)O)C1CCC1; NMeCha = CN[C@@H](CC1CCCCC1)C(=O)O; Hyp = O=C(O)[C@@H]1C[C@@H](O)CN1; NMeCba = CN[C@@H](CC1CCC1)C(=O)O; NMeChg = CN[C@H](C(=O)O)C1CCCCC1; NMeI = CC[C@H](C)[C@H](NC)C(=O)O; NMeD = CN[C@@H](CC(=O)O)C(=O)O; NMeL = CN[C@@H](CC(C)C)C(=O)O; NMeV = CN[C@H](C(=O)O)C(C)C; d(β3hA) = C[C@@H](N)CC(=O)O; NMeS = CN[C@@H](CO)C(=O)O; NMeA = CN[C@@H](C)C(=O)O; Piperidide = C1CCN(*)CC1; Pyrrolidide = C1CCN(*)C1; Ac5c = NC1(C(=O)O)CCCC1; Aze = O=C(O)[C@@H]1CCN1; Isopentyl = CC(C)CC*; Sar = CNCC(=O)O

For orientation: IC50 means the midpoint of a concentration-inhibition curve.

The subject of this assay is Human pancreatic cancer cell line AsPC-1. The assay can be described thus: Measurement of AsPC-1 cell growth inhibition (AsPC-1 CGI). The assay is classed as cell-based. Particulars: 96 h. The method, boiled down:
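AsPC-1 cells in 15% FBS RPMI-1640 were exposed to test compound for 96 hours at 37° C, with CellTiter-Glo as endpoint.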
Consider `CC[C@H](C)[C@@H]1NC(=O)[C@H](CC(C)C)N(C)C(=O)C[C@@H](C(=O)N2CCCCC2)N(C)C(=O)[C@H](C(C)C)N(C)C(=O)C2(CCCC2)NC(=O)[C@@H]2CCCN2C(=O)[C@H](CCc2ccc(C(F)(F)F)c(Cl)c2)NC(=O)CN(C)C(=O)[C@H](C2CCC2)N(C)C(=O)[C@@H]2CCN2C(=O)[C@H](C)N(C)C1=O` [Compound 446] ([NMeL]I[NMeA][Aze][NMeGly(cBu)][Sar][hPhe(3-Cl-4-CF3)]P[Ac5c][NMeV][NMeD]-Piperidide; lactam N-11), for which the IC50 is 100 to 500 nM.
To `CC[C@H](C)[C@@H]1NC(=O)[C@H](CC(C)C)N(C)C(=O)C[C@@H](C(=O)N2CCCC2)NC(=O)[C@H]([C@@H](C)CC)N(C)C(=O)C2(CCCC2)NC(=O)[C@@H]2CCCN2C(=O)[C@H](CCc2ccc(C(F)(F)F)c(Cl)c2)NC(=O)CN(C)C(=O)[C@H](CC2CCCCC2)N(C)C(=O)[C@@H]2CCN2C(=O)[C@H](C)N(C)C1=O` [Compound 453] ([NMeL]I[NMeA][Aze][NMeCha][Sar][hPhe(3-Cl-4-CF3)]P[Ac5c][NMeI]D-Pyrrolidide; lactam N-11) belongs 50 to 100 nM.
For the compound `CC[C@H](C)[C@@H]1NC(=O)[C@H](CC2CCC2)N(C)C(=O)C[C@@H](C)NC(=O)[C@H](C(C)C)N(C)C(=O)C2(CCCC2)NC(=O)[C@@H]2CCCN2C(=O)[C@H](CCc2ccc(C(F)(F)F)c(Cl)c2)NC(=O)CN(C)C(=O)[C@H](CC2CCCCC2)N(C)C(=O)[C@@H]2CCN2C(=O)[C@H](C)N(C)C1=O` [Compound 455] (cyclo([Ac5c][NMeV][d(β3hA)][NMeCba]I[NMeA][Aze][NMeCha][Sar][hPhe(3-Cl-4-CF3)]P)), the IC50 fell in the range of 100 to 500 nM.
`CC[C@H](C)[C@@H]1NC(=O)[C@H](CC(C)C)N(C)C(=O)C[C@@H](C(=O)N2C3CCC2COC3)N(C)C(=O)[C@H]([C@@H](C)CC)N(C)C(=O)C2(CCCC2)NC(=O)[C@@H]2CCCN2C(=O)[C@H](CCc2ccc(C(F)(F)F)c(Cl)c2)NC(=O)CN(C)C(=O)[C@H](CC2CCCCC2)N(C)C(=O)[C@@H]2CCN2C(=O)[C@H](C)N(C)C1=O` [Compound 469] ([NMeL]I[NMeA][Aze][NMeCha][Sar][hPhe(3-Cl-4-CF3)]P[Ac5c][NMeI][NMeD]-{3Oxa8azabicyclo(3.2.1)octane}; lactam N-11) came in with a half-maximal inhibitory concentration (IC50) of 20 to 50 nM.
To `CC[C@H](C)[C@@H]1NC(=O)[C@H](CC(C)C)N(C)C(=O)C[C@@H](C(=O)N2CCCCC2)N(C)C(=O)[C@H](C(C)C)N(C)C(=O)C2(CCCC2)NC(=O)[C@@H]2CCCN2C(=O)[C@H](CCc2ccc(C(F)(F)F)c(Cl)c2)NC(=O)CN(C)C(=O)[C@H](COCCC(C)C)N(C)C(=O)[C@@H]2CCN2C(=O)[C@H](C)N(C)C1=O` [Compound 470] ([NMeL]I[NMeA][Aze][NMeS](Isopentyl)[Sar][hPhe(3-Cl-4-CF3)]P[Ac5c][NMeV][NMeD]-Piperidide; lactam N-11) belongs 100 to 500 nM; to `CC[C@H](C)[C@@H]1NC(=O)[C@H](CC(C)C)N(C)C(=O)C[C@@H](C(=O)N2CCCCC2)N(C)C(=O)[C@H](C(C)C)N(C)C(=O)C2(CCCC2)NC(=O)[C@@H]2CCCN2C(=O)[C@H](CCc2ccc(C(F)(F)F)c(Cl)c2)NC(=O)CN(C)C(=O)[C@H](CC2CCCCC2)N(C)C(=O)[C@@H]2CCN2C(=O)[C@H](C)N(C)C1=O` [Compound 476] ([NMeL]I[NMeA][Aze][NMeCha][Sar][hPhe(3-Cl-4-CF3)]P[Ac5c][NMeV][NMeD]-Piperidide; lactam N-11), 100 to 500 nM.
With `CCO[C@@H]1C[C@H]2C(=O)NC3(CCCC3)C(=O)N(C)[C@@H](C3CCCCC3)C(=O)N(C)[C@H](C)CC(=O)N(C)[C@@H](CC(C)C)C(=O)N[C@@H]([C@@H](C)CC)C(=O)N(C)[C@@H](C)C(=O)N3CC[C@H]3C(=O)N(C)[C@@H](Cc3ccc(C(F)(F)F)cc3)C(=O)N(C)CC(=O)N[C@@H](CCc3cc(F)c(C(F)(F)F)c(F)c3)C(=O)N2C1` [Compound 486] (cyclo([Ac5c][NMeChg][NMedβ3hAla][NMeL]I[NMeA][Aze][NMePhe(4-CF3)][Sar][hPhe(3,5-F2-4-CF3)][Hyp](Et))) the figure was 50 to 100 nM.
